Laboratory results taken from patent publication US10668049B2, “Methods of treating cognitive decline with transforming growth factor beta inhibitors” (The Regents of the University of California, priority 2008, dated 2020).

Columns and labels:
[1] = molecular target: T1, astrocyte specific glutamate transporter, SLC1A2 (Rattus norvegicus, UniProt P31596); experiment: Whole cell patch recording of NMDA-mediated EPSCs in cortical pyramidal neurons; type: cell-based
T1 construct: In vitro intracellular recordings were obtained from pyramidal neurons (layer 2-3) 23-28 h following the in vivo treatment; from tissue; host or cells: acute rat neocortical slices (astrocytic transporter; recordings from layer 2-3 pyramidal neurons)
Method: In vitro intracellular recordings were obtained from pyramidal neurons (layer 2-3) 23-28 h following the in vivo treatment with albumin or from control rats. Currents were recorded using the whole cell patch configuration, as described previously (Pavlovsky et al., 2003). In brief, glass pipettes were pulled from capillaries using a vertical puller (Narashige, Greenvale, N.Y.) and filled with a solution comprising (in mM): 150 CsCl, 1 MgCl2, 10 HEPES, 4 Na2ATP, 0.1 CaCl2, and 1.1 mM EGTA, pH adjusted to 7.2 with a final osmolarity of 290-310 mOsm. Cells were visualized using infrared differential interference phase contrast video-microscopy. Recordings were performed using AxoPatch 700B (Axon Instruments, Foster City, Calif.), digitized at 10 kHz and recorded using pClamp 9.2 (Axon Instruments, Foster City, Calif.). Patch pipette's resistance was 4-5 MΩ. Series resistance was not electronically compensated; however, cells in which series resistance varied by more than 25% were excluded from the analysis. Stimulation protocols were started at least 5 min following impalement to allow intracellular dialysis with the pipette solution. Excitatory post-synaptic currents (EPSCs) were evoked—using a bipolar stimulating electrode positioned <200 μm from the recorded cell—at 75% of the intensity producing maximal EPSCs. N-methyl-D-aspartic acid (NMDA) currents were recorded in the presence of blockers of α-amino-3-hydroxy-5-methyl-4-isoxazole-propionic acid (AMPA)/kainate (i.e., 30 μM CNQX) and of gamma-aminobutyric acid A (GABAA) receptors (i.e., 10 μM bicuculine methiodide). Cells were voltage clamped to +40 mV to alleviate NMDA receptor blockade and inactivate fast Na^+ currents. In some experiments, dihydrokainic acid (DHK, Tocris, Bristol, UK), 100 μM, was added to the extracellular solution to selectively block the astrocyte specific glutamate transporter, SLC1A2 (see Arriza et al., 1994).
To confirm that the transcriptional changes induced by albumin were associated with altered cellular functions, the clearance of extracellular glutamate and potassium in cortical slices 24 hours following albumin treatment in vivo was investigated. To measure synaptic glutamate levels during neuronal activation, the slowly inactivating (Lester et al., 1990) NMDA currents in cortical neurons were recorded by using the whole-cell patch configuration (in the presence of non-NMDA glutamate and GABA receptor blockers, see Methods). Cells were clamped at +40 mV to prevent a potential confounding effect of post-synaptic depolarization due to the accumulation of synaptic [K^+]o. […] Synaptic glutamate elicited by 50 extracellular stimulations at 2, 5, 10, 20, 50 and 100 Hz before and after adding the astrocytic SLC1A2 specific inhibitor, DHK was measured. In neurons from control animals, DHK had no effect on single EPSCs or EPSCs elicited at low stimulation frequencies (<20 Hz). […] The same experiments were then repeated 24 h following cortical application of albumin (i.e. during epileptogenesis). In contrast to the control experiments, DHK had no effect on EPSC amplitude in treated slices (FIG. 13b-c, right), supporting reduced expression of the astrocytic transporter SLC1A2.

astrocytic cultures = experiment: RT-PCR of astrocytic cultures exposed to albumin; type: cell-based, rat; conditions: albumin for 24 h
Method: Primary neuronal cortical cultures were prepared from embryonic day 18 rats as reported previously (Kaufer et al., 2004). Briefly, cells were dissociated with a papain solution for 20 min at 37° C., After the removal of the papain solution, the tissue was resuspended in growth medium [MEM with Earle's salts containing 2.5% B27 supplement, 0.1% mito serum extender, 5% fetal bovine serum (FBS), 20 mM glucose, and 5 mM L-glutamine] and dissociated by mechanical trituration. The cells were plated, and after 4 h in vitro the cell culture medium was replaced with neurobasal medium supplemented with 2% B27 supplement and 0.5 mM GlutaMAX™. The cells were maintained in 5% CO2 at 37° C. After 7 days in vitro, cytosine arabinofuranoside (AraC) (10 μM) was added to the cultures. After 10 days in vitro, the cells were incubated with 0.4 mM albumin for 24 h at 37° C. For astrocytic cultures, astrocytcs were isolated from the cerebral cortices of PO rat pups. Cells were dissociated with papain and mechanical trituration. The cells were cultured in high-glucose Dulbecco's modified eagle medium supplemented with 10% FBS and 1% penicillin/streptomycin at 37° C. and in 5% C02 (medium was replaced every 3-4 days). After 10 days in vitro, the culture medium was replaced with serum-free high-glucose DMEM (containing 1% penicillin/streptomycin) for 18 h. The cells were then incubated in scrum-free medium containing 0.4 mM albumin for 24 h at 37° C. For immunostainings cells were washed with phosphate buffered saline (PBS) and fixed in 4% paraformaldehyde for 15 min. The cells were permeabilized with 0.2% Triton X-100 in PBS for 5 min and washed in PBS. They were then incubated with 5% normal donkey serum in PBS for one hour at room temperature followed by overnight incubation at 4° C. with either mouse anti-NeuN (1:1000: Chemicon, Temecula, Calif.) or mouse anti-GFAP (1:1000: Cell Signaling Technology, Beverly, Mass.). The cells were washed in PBS, incubated with donkey anti-mouse Cy3 (1:1000; Jackson ImmunoResearch. West Grove, Pa.) for 1 hour at room temperature, and then counterstained with DAPI.
Total RNA was isolated from the somatosensory cortices of animals treated with DOC or albumin (24 h treatment; n=3) or from primary cultures (astrocytic and neuronal, n=3 independent experiments). Expression levels were determined by real-time reverse transcriptase-PCR (RT-PCR) with an iQ5 detection system (Bio-Rad, Hercules, Calif.) using gene-specific primer pairs. RT-PCR data were analyzed using the PCR Miner program (Zhao and Fernald, 2005), and fold changes in gene expression were represented relative to sham-operated controls (in-vivo samples) or serum-deprived controls (in-vitro, samples). Ribosomal 18S RNA (18S rRNA) was used as an internal control for variations in sample preparation. For samples from in-vivo treatments, RT-PCR was performed with the iScript one-step RT-PCR kit (Bio-Rad). Control RT-PCR reactions were performed without reverse transcriptase to verify amplification of genomic DNA. For in-vitro samples, DNase treatment was applied, followed by first-strand cDNA synthesis (iScript cDNA Synthesis kit, Bio-Rad). PCR reactions were carried out with iQ SYBR Green Supermix (Bio-Rad). Primer specificity was verified by melt curve analysis. The amplification cycles for 18S, Gja1, GS, SLC1A2, SLC1A3 (GLAST) and Kenj10 consisted of 40 cycles of 10 s at 95° C., 30 s at 55° C., and 30 s at 72° C. […]

[2] = 24 h following albumin treatment in vivo, clamped at +40 mV

T1 sequence (P31596 whole entry): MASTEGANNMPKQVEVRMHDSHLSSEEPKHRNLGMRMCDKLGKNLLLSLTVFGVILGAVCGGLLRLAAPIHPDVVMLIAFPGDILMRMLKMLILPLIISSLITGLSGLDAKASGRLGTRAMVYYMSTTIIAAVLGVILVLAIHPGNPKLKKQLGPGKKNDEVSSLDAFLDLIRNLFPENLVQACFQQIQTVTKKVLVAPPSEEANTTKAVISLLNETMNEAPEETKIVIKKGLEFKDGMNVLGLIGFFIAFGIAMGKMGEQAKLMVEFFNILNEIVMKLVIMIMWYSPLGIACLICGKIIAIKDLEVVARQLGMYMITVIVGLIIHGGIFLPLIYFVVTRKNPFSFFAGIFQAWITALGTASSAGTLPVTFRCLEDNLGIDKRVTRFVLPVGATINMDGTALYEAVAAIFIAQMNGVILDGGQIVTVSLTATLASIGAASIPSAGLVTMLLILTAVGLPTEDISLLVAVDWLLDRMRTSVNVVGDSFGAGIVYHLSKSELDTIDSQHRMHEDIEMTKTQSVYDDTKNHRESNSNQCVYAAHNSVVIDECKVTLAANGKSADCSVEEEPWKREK

Mean single EPSC amplitude [1, 2]: 505±100 pA
Mean single EPSC rise-time [1, 2]: 14.5 ± 0.5 ms
EPSC amplitude on repetitive stimulation, compared to controls ([1]; 24 h following cortical application of albumin): stronger depression
Substance: albumin: bovine serum albumin, used to induce epileptogenesis
GS transcript expression (astrocytic cultures): significant down-regulation
Gja1 transcript expression (astrocytic cultures): significant down-regulation
Gjb2 transcript expression (astrocytic cultures): significant down-regulation
Gjb6 transcript expression (astrocytic cultures): significant down-regulation
S1C1A3 transcript expression (astrocytic cultures): significant down-regulation
